These are literature values, as cited in patent publication US20200396993A1, “COMPOSITIONS AND METHODS FOR RELEASE OF CYCLOPROPENES” (Hazel Technologies, Inc., priority 2017, published 2020).

Molecules are shown by their SMILES. In brackets after ≈: the same amount, converted by molar mass.

The conditions of the data set: in water.

As to `CC1=CC1` [Sample 1-MCP, 1-methylcyclopropene], the solubility was 137 µg/mL (≈ 2530 µM).
